Measured values reported in patent US10435405B2, “Pyrazolopyridine compounds and uses thereof” (Incyte Corporation, priority 2016, dated 2019).
pKi: −log10 of the molar value.

Molecular target: HPK1 (Homo sapiens (Human), UniProt Q92918)
Assay: HPK1 Kinase Binding Assay
How it was run: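 This is a LanthaScreen tracer-binding format: a tracer 222/Eu-anti-GST antibody mix (18 nM and 4 nM solution) is added to active HPK1 (4 nM solution) with 3-fold, 11-point compound dilutions. Incubation is 1 h at 25 °C in HEPES pH 7.5 buffer before reading, and Ki is determined.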

Chain of HPK1 (Q92918 1-346): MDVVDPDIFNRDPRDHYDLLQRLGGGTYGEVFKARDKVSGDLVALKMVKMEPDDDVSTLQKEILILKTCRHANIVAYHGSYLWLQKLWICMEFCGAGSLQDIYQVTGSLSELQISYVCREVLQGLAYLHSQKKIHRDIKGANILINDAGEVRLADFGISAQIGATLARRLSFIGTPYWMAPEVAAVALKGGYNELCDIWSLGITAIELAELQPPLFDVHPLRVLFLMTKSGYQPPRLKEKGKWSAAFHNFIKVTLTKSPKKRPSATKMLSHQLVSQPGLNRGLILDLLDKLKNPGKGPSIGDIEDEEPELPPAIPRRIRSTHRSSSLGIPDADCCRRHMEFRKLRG

Row | pKi | Structure (SMILES)
1 | ≥ 7.00 | CCn1cc(-c2n[nH]c3cnc(-c4c(C)cc(C5CCCCN5)cc4F)cc23)cn1 (single isomer, unassigned) [Example 230, 3-(1-Ethyl-1H-pyrazol-4-yl)-5-(2-fluoro-6-methyl-4-(piperidin-2-yl)phenyl)-1H-pyrazolo[3,4-c]pyridine]
2 | ≥ 7.00 | CNCc1cc(F)c(-c2cc3c(-c4ccnc(N5CCN(C)CC5)c4)n[nH]c3cn2)c(F)c1 [Example 163, 1-(3,5-Difluoro-4-(3-(2-(4-methylpiperazin-1-yl)pyridin-4-yl)-1H-pyrazolo[3,4-c]pyridin-5-yl)phenyl)-N-methylmethanamine]
3 | ≥ 7.00 | CCc1ccc(C(=O)Nc2n[nH]c3cnc(-c4c(F)cccc4OC)cc23)cc1 [Example 8, 4-Ethyl-N-(5-(2-fluoro-6-methoxyphenyl)-1H-pyrazolo[3,4-c]pyridin-3-yl)benzamide]
4 | ≥ 7.00 | CNCc1cc(F)c(-c2cc3c(-c4ccc(N5CCN(C)CC5)cc4)n[nH]c3cn2)c(C(F)(F)F)c1 [Example 132, 1-(3-Fluoro-4-(3-(4-(4-methylpiperazin-1-yl)phenyl)-1H-pyrazolo[3,4-c]pyridin-5-yl)-5-(trifluoromethyl)phenyl)-N-methylmethanamine]
5 | ≥ 7.00 | CNC1CCCc2c1ccc(F)c2-c1cc2c(-c3ccc(N4CCN(C)CC4)cc3)n[nH]c2cn1 (stereo not drawn) [Example 209, 6-Fluoro-N-methyl-5-(3-(4-(4-methylpiperazin-1-yl)phenyl)-1H-pyrazolo[3,4-c]pyridin-5-yl)-1,2,3,4-tetrahydronaphthalen-1-amine]
6 | ≥ 7.00 | CNCc1cc(F)c(-c2cc3c(-c4cnc(N5CCN(C)CC5)nc4)n[nH]c3cn2)c(F)c1 [Example 217, 1-(3,5-Difluoro-4-(3-(2-(4-methylpiperazin-1-yl)pyrimidin-5-yl)-1H-pyrazolo[3,4-c]pyridin-5-yl)phenyl)-N-methylmethanamine]
7 | ≥ 7.00 | Cc1cc(CNC2CC2)cc(F)c1-c1cc2c(-c3cnn(C)c3)n[nH]c2cn1 [Example 177, N-(3-Fluoro-5-methyl-4-(3-(1-methyl-1H-pyrazol-4-yl)-1H-pyrazolo[3,4-c]pyridin-5-yl)benzyl)cyclopropanamine]
8 | ≥ 7.00 | COc1cccc(F)c1-c1cc2c(N3CCc4ccc(C#N)cc4C3)n[nH]c2cn1 [Example 38, 2-(5-(2-Fluoro-6-methoxyphenyl)-1H-pyrazolo[3,4-c]pyridin-3-yl)-1,2,3,4-tetrahydroisoquinoline-7-carbonitrile]
9 | ≥ 7.00 | Cc1cc(CNC2CC(O)C2)cc(F)c1-c1cc2c(-c3cnn(C)c3)n[nH]c2cn1 (stereo not drawn) [Example 181, 3-(3-Fluoro-5-methyl-4-(3-(1-methyl-1H-pyrazol-4-yl)-1H-pyrazolo[3,4-c]pyridin-5-yl)benzylamino)cyclobutanol]
10 | ≥ 7.00 | CNCc1cc(C)c(-c2cc3c(-c4ccc(N5CCCC(OC)C5)nc4)n[nH]c3cn2)c(F)c1 (stereo not drawn) [Example 114, 1-(3-Fluoro-4-(3-(6-(3-methoxypiperidin-1-yl)pyridin-3-yl)-1H-pyrazolo[3,4-c]pyridin-5-yl)-5-methylphenyl)-N-methylmethanamine]
11 | ≥ 7.00 | Cn1cc(-c2n[nH]c3cnc(-c4c(F)cc(OC(=O)N5CCOCC5)cc4F)cc23)cn1 [Example 110, 3,5-Difluoro-4-(3-(1-methyl-1H-pyrazol-4-yl)-1H-pyrazolo[3,4-c]pyridin-5-yl)phenyl morpholine-4-carboxylate]
12 | ≥ 7.00 | CNC1CCCc2c1ccc(F)c2-c1cc2c(-c3ccc(N4CCN(C)CC4)nc3)n[nH]c2cn1 (stereo not drawn) [Example 240, 6-Fluoro-N-methyl-5-(3-(6-(4-methylpiperazin-1-yl)pyridin-3-yl)-1H-pyrazolo[3,4-c]pyridin-5-yl)-1,2,3,4-tetrahydronaphthalen-1-amine]
13 | ≥ 7.00 | Cc1cc(C2CCCCN2)cc(F)c1-c1cc2c(-c3cnn(C4CC4)c3)n[nH]c2cn1 (single isomer, unassigned) [Example 233, 3-(1-Cyclopropyl-1H-pyrazol-4-yl)-5-(2-fluoro-6-methyl-4-(piperidin-2-yl)phenyl)-1H-pyrazolo[3,4-c]pyridine]
14 | ≥ 7.00 | COc1cccc(F)c1-c1cc2c(NC(=O)c3cccc(N4CCOCC4)c3)n[nH]c2cn1 [Example 16, N-(5-(2-Fluoro-6-methoxyphenyl)-1H-pyrazolo[3,4-c]pyridin-3-yl)-3-morpholinobenzamide]
15 | ≥ 7.00 | CNC(=O)c1cn(-c2n[nH]c3cnc(-c4c(F)cccc4OC)cc23)cn1 [Example 105, 1-(5-(2-Fluoro-6-methoxyphenyl)-1H-pyrazolo[3,4-c]pyridin-3-yl)-N-methyl-1H-imidazole-4-carboxamide]
16 | ≥ 7.00 | CNCc1cccc(-c2cc3c(-c4cnn(C)c4)n[nH]c3cn2)c1C(F)(F)F [Example 88, N-Methyl-1-(3-(3-(1-methyl-1H-pyrazol-4-yl)-1H-pyrazolo[3,4-c]pyridin-5-yl)-2-(trifluoromethyl)phenyl)methanamine]
17 | ≥ 7.00 | CNCCc1cc(F)c(-c2cc3c(-c4cnn(C)c4)n[nH]c3cn2)c(F)c1 [Example 96, 2-(3,5-Difluoro-4-(3-(1-methyl-1H-pyrazol-4-yl)-1H-pyrazolo[3,4-c]pyridin-5-yl)phenyl)-N-methylethanamine]

Row | pKi | Structure (SMILES)
18 | ≥ 7.00 | COc1cccc(F)c1-c1cc2c(NC(=O)c3ccc4c(c3)OCO4)n[nH]c2cn1 [Example 13, N-(5-(2-Fluoro-6-methoxyphenyl)-1H-pyrazolo[3,4-c]pyridin-3-yl)benzo[d][1,3]dioxole-5-carboxamide]
19 | ≥ 7.00 | COC1CCCN(Cc2ccc(F)c(-c3cc4c(-c5cnn(C)c5)n[nH]c4cn3)c2F)C1 (stereo not drawn) [Example 130, 5-(2,6-Difluoro-3-((3-methoxypiperidin-1-yl)methyl)phenyl)-3-(1-methyl-1H-pyrazol-4-yl)-1H-pyrazolo[3,4-c]pyridine]
20 | ≥ 7.00 | Cn1cc(-c2n[nH]c3cnc(-c4c(F)ccc(CNC5CC5)c4F)cc23)cn1 [Example 129, N-(2,4-Difluoro-3-(3-(1-methyl-1H-pyrazol-4-yl)-1H-pyrazolo[3,4-c]pyridin-5-yl)benzyl)cyclo propanamine]
21 | ≥ 7.00 | CNC1CCc2cc(F)c(-c3cc4c(-c5ccc(N6CCN(C)CC6)cc5)n[nH]c4cn3)c(F)c21 (stereo not drawn) [Example 205, 5,7-Difluoro-N-methyl-6-(3-(4-(4-methylpiperazin-1-yl)phenyl)-1H-pyrazolo[3,4-c]pyridin-5-yl)-2,3-dihydro-1H-inden-1-amine]
22 | ≥ 7.00 | CNCc1cc(C)c(-c2cc3c(-c4cnn(-c5ccccc5C#N)c4)n[nH]c3cn2)c(F)c1 [Example 135, 2-(4-(5-(2-Fluoro-6-methyl-4-((methylamino)methyl)phenyl)-1H-pyrazolo[3,4-c]pyridin-3-yl)-1H-pyrazol-1-yl)benzonitrile]
23 | ≥ 7.00 | CN1CCN(c2ccc(-c3n[nH]c4cnc(-c5c(F)ccc6c5CCCC6N)cc34)cc2)CC1 (stereo not drawn) [Example 241, 6-Fluoro-5-(3-(4-(4-methylpiperazin-1-yl)phenyl)-1H-pyrazolo[3,4-c]pyridin-5-yl)-1,2,3,4-tetrahydronaphthalen-1-amine]
24 | ≥ 7.00 | Cc1cc(CNCC(C)(C)O)cc(F)c1-c1cc2c(-c3cnn(C)c3)n[nH]c2cn1 [Example 184, 1-(3-Fluoro-5-methyl-4-(3-(1-methyl-1H-pyrazol-4-yl)-1H-pyrazolo[3,4-c]pyridin-5-yl)benzylamino)-2-methylpropan-2-ol]
25 | ≥ 7.00 | CNC1CCCc2c1cc(F)c(-c1cc3c(-c4cnn(C)c4)n[nH]c3cn1)c2F (stereo not drawn) [Example 202, 5,7-Difluoro-N-methyl-6-(3-(1-methyl-1H-pyrazol-4-yl)-1H-pyrazolo[3,4-c]pyridin-5-yl)-1,2,3,4-tetrahydronaphthalen-1-amine]
26 | ≥ 7.00 | CNCc1cc(F)c(-c2cc3c(-c4ccc(N5CCOCC5)nc4)n[nH]c3cn2)c(C(F)(F)F)c1 [Example 121, 1-(3-Fluoro-4-(3-(6-morpholinopyridin-3-yl)-1H-pyrazolo[3,4-c]pyridin-5-yl)-5-(trifluoromethyl)phenyl)-N-methylmethanamine]
27 | ≥ 7.00 | COc1cccc(F)c1-c1cc2c(N3CCN(c4ccc(C#N)cc4)CC3)n[nH]c2cn1 [Example 39, 4-(4-(5-(2-Fluoro-6-methoxyphenyl)-1H-pyrazolo[3,4-c]pyridin-3-yl)piperazin-1-yl)benzonitrile]
28 | ≥ 7.00 | COc1cccc(F)c1-c1cc2c(NC(=O)c3cccc(N4CCN(C)C(=O)C4)c3)n[nH]c2cn1 [Example 19, N-(5-(2-Fluoro-6-methoxyphenyl)-1H-pyrazolo[3,4-c]pyridin-3-yl)-3-(4-methyl-3-oxopiperazin-1-yl)benzamide]
29 | ≥ 7.00 | Cc1cc(CNCc2cn(C)cn2)cc(F)c1-c1cc2c(-c3cnn(C)c3)n[nH]c2cn1 [Example 186, N-(3-Fluoro-5-methyl-4-(3-(1-methyl-1H-pyrazol-4-yl)-1H-pyrazolo[3,4-c]pyridin-5-yl)benzyl)-1-(1-methyl-1H-imidazol-4-yl)methanamine]
30 | ≥ 7.00 | COc1c(-c2cc3c(-c4cnn(C)c4)n[nH]c3cn2)c(F)cc2c1C(N)CC2 (stereo not drawn) [Example 207, 5-Fluoro-7-methoxy-6-(3-(1-methyl-1H-pyrazol-4-yl)-1H-pyrazolo[3,4-c]pyridin-5-yl)-2,3-dihydro-1H-inden-1-amine]
31 | ≥ 7.00 | CNC1CCc2cc(F)c(-c3cc4c(-c5cnn(C)c5)n[nH]c4cn3)c(F)c2C1 (stereo not drawn) [Example 200, 6,8-Difluoro-N-methyl-7-(3-(1-methyl-1H-pyrazol-4-yl)-1H-pyrazolo[3,4-c]pyridin-5-yl)-1,2,3,4-tetrahydronaphthalen-2-amine]
32 | ≥ 7.00 | CN1CCN(c2ccc(C(=O)Nc3n[nH]c4cnc(-c5c(F)cc(CN6CCC6)cc5F)cc34)cc2)CC1 [Example 142, N-(5-(4-(Azetidin-1-ylmethyl)-2,6-difluorophenyl)-1H-pyrazolo[3,4-c]pyridin-3-yl)-4-(4-methylpiperazin-1-yl)benzamide]
33 | ≥ 7.00 | CNCc1cc(F)c(-c2cc3c(-c4cnn(C5CNC5)c4)n[nH]c3cn2)c(F)c1 [Example 162, 1-(4-(3-(1-(Azetidin-3-yl)-1H-pyrazol-4-yl)-1H-pyrazolo[3,4-c]pyridin-5-yl)-3,5-difluorophenyl)-N-methylmethanamine]
